# Measurements published in patent US8664409B2, “Process for the preparation of (poly) aminoalkylaminoacetamide derivatives of epipodophyllotoxin useful for their applications in therapeutics as anticancer agent” (Pierre Fabre Medicament, priority 2007, dated 2014).
# Where a name gives a salt, the structure may show the parent alone.
row,melting point,Compound
1,263 °C,COc1cc(C2c3cc4c(cc3[C@@H](NC(=O)CNCCCCNCCCCNCCCCN)[C@H]3COC(=O)C23)OCO4)cc(OC)c1O (some centres unmarked) (as salt: hydrochloride)
2,197 °C,COc1cc(C2c3cc4c(cc3[C@@H](NC(=O)CNCCCCNCCCN)[C@H]3COC(=O)C23)OCO4)cc(OC)c1O (some centres unmarked) (as salt: hydrochloride)
